Experimental findings from publication PMC5218480 (PLoS ONE, 2017) are described below.

In the assay the test system is MV-4-11 cells. Kind of assay: Gene expression microarray analysis (Affymetrix PrimeView) and GSEA. Type of assay: cell-based, human. More on the design: RFU PODN (11730768_x_at) / Fold change /veh PODN (11730768_x_at) / RFU LINC00158 (11744669_a_at) / Fold change /veh LINC00158 (11744669_a_at) / RFU DUSP10 (11751237_a_at) / Fold change /veh DUSP10 (11751237_a_at) / RFU ID3 (11757404_x_at) / Fold change /veh ID3 (11757404_x_at) / RFU PLEKHG5 (11737974_s_at) / Fold change /veh PLEKHG5 (11737974_s_at) / RFU LRRC4B (11730491_at) / Fold change /veh LRRC4B (11730491_at) / RFU GIMAP4 (11747438_a_at) / Fold change /veh GIMAP4 (11747438_a_at) / RFU KRT8 (11758183_x_at) / Fold change /veh KRT8 (11758183_x_at) / RFU CNN1 (11734310_a_at) / Fold change /veh CNN1 (11734310_a_at) / RFU VPS37D (11726825_at) / Fold change /veh VPS37D (11726825_at) / RFU C10orf10 (11716522_x_at) / Fold change /veh C10orf10 (11716522_x_at) / RFU KIR2DL2 /// KIR2DL4 /// KIR2DL5A /// KIR2DL5B /// KIR2DS1 /// KIR2DS2 /// KIR2DS3 /// KIR2DS4 /// KIR3DL3 /// KIR3DL3 /// KIR3DS1 (11738374_at) / Fold change /veh KIR2DL2 /// KIR2DL4 /// KIR2DL5A /// KIR2DL5B /// KIR2DS1 /// KIR2DS2 /// KIR2DS3 /// KIR2DS4 /// KIR3DL3 /// KIR3DL3 /// KIR3DS1 (11738374_at) / RFU C1QL1 (11718748_at) / Fold change /veh C1QL1 (11718748_at) / RFU TMPRSS4 (11747572_a_at) / Fold change /veh TMPRSS4 (11747572_a_at) / RFU HAMP (11756126_x_at) / Fold change /veh HAMP (11756126_x_at) / RFU RNFT2 (11725882_a_at) / Fold change /veh RNFT2 (11725882_a_at) / RFU NR4A2 (11747474_a_at) / Fold change /veh NR4A2 (11747474_a_at) / RFU ABCC12 (11746883_a_at) / Fold change /veh ABCC12 (11746883_a_at) / RFU TMEM136 (11760407_x_at) / Fold change /veh TMEM136 (11760407_x_at) / RFU CLDN22 /// WWC2 (11732394_at) / Fold change /veh CLDN22 /// WWC2 (11732394_at) / RFU HLA-DPB1 (11760878_x_at) / Fold change /veh HLA-DPB1 (11760878_x_at) / RFU SPINT1 (11716480_a_at) / Fold change /veh SPINT1 (11716480_a_at) / RFU GAP43 (11754022_s_at) / Fold change /veh GAP43 (11754022_s_at) / RFU A4GNT (11735810_at) / Fold change /veh A4GNT (11735810_at) / RFU PRB3 (11715151_x_at) / Fold change /veh PRB3 (11715151_x_at) / RFU TUBB4B (11761932_at) / Fold change /veh TUBB4B (11761932_at) / RFU CAPN14 (11732068_a_at) / Fold change /veh CAPN14 (11732068_a_at) / RFU TMCC2 (11721928_a_at) / Fold change /veh TMCC2 (11721928_a_at) / RFU IRGQ (11745062_a_at) / Fold change /veh IRGQ (11745062_a_at) / RFU FAM174B (11720279_a_at) / Fold change /veh FAM174B (11720279_a_at) / RFU TMPRSS4 (11748680_a_at) / Fold change /veh TMPRSS4 (11748680_a_at) / RFU FAM212B (11763350_a_at) / Fold change /veh FAM212B (11763350_a_at) / RFU PLEKHG5 (11743358_a_at) / Fold change /veh PLEKHG5 (11743358_a_at) / RFU ZSCAN30 (11745921_a_at) / Fold change /veh ZSCAN30 (11745921_a_at) / RFU CMKLR1 (11741424_a_at) / Fold change /veh CMKLR1 (11741424_a_at) / RFU LOC101060620 /// MAPK8IP1 (11723275_at) / Fold change /veh LOC101060620 /// MAPK8IP1 (11723275_at) / RFU SPTSSB (11747773_x_at) / Fold change /veh SPTSSB (11747773_x_at) / RFU PRSS12 (11739890_at) / Fold change /veh PRSS12 (11739890_at) / RFU BIN1 (11741810_x_at) / Fold change /veh BIN1 (11741810_x_at) / RFU WNT11 (11732464_a_at) / Fold change /veh WNT11 (11732464_a_at) / RFU C10orf10 (11716521_a_at) / Fold change /veh C10orf10 (11716521_a_at) / RFU C5orf56 (11738089_at) / Fold change /veh C5orf56 (11738089_at) / RFU CYB561 (11721691_x_at) / Fold change /veh CYB561 (11721691_x_at) / RFU ANKRD19P (11752326_a_at) / Fold change /veh ANKRD19P (11752326_a_at) / RFU OR2T12 /// OR2T33 /// OR2T8 (11738714_s_at) / Fold change /veh OR2T12 /// OR2T33 /// OR2T8 (11738714_s_at) / RFU VCAN (11748164_a_at) / Fold change /veh VCAN (11748164_a_at) / RFU JSRP1 (11732532_at) / Fold change /veh JSRP1 (11732532_at) / RFU KRTAP10-11 (11738290_x_at) / Fold change /veh KRTAP10-11 (11738290_x_at) / RFU MYO3A (11730013_a_at) / Fold change /veh MYO3A (11730013_a_at) / RFU EBF3 (11725865_a_at) / Fold change /veh EBF3 (11725865_a_at) / RFU CAMK2N1 (11719241_x_at) / Fold change /veh CAMK2N1 (11719241_x_at) / RFU C5orf56 (11738088_a_at) / Fold change /veh C5orf56 (11738088_a_at) / RFU OLFML3 (11715873_a_at) / Fold change /veh OLFML3 (11715873_a_at) / RFU LOC100653217 /// NTM (11731650_a_at) / Fold change /veh LOC100653217 /// NTM (11731650_a_at) / RFU MAPK11 (11762145_a_at) / Fold change /veh MAPK11 (11762145_a_at) / RFU FIZ1 (11724087_x_at) / Fold change /veh FIZ1 (11724087_x_at) / RFU OASL (11726364_x_at) / Fold change /veh OASL (11726364_x_at) / RFU SOX15 (11748057_x_at) / Fold change /veh SOX15 (11748057_x_at) / RFU CD79A (11719716_a_at) / Fold change /veh CD79A (11719716_a_at) / RFU HIST1H1D (11736915_at) / Fold change /veh HIST1H1D (11736915_at) / RFU CASKIN2 (11723855_a_at) / Fold change /veh CASKIN2 (11723855_a_at) / RFU LOC730098 (11760151_x_at) / Fold change /veh LOC730098 (11760151_x_at) / RFU OR4N2 (11742367_at) / Fold change /veh OR4N2 (11742367_at) / RFU PRRT2 (11749266_a_at) / Fold change /veh PRRT2 (11749266_a_at) / RFU SNX32 (11753110_a_at) / Fold change /veh SNX32 (11753110_a_at) / RFU CDHR5 (11726645_a_at) / Fold change /veh CDHR5 (11726645_a_at) / RFU RCAN1 (11760418_a_at) / Fold change /veh RCAN1 (11760418_a_at) / RFU FAM167A (11723789_a_at) / Fold change /veh FAM167A (11723789_a_at) / RFU FAM26E (11764081_at) / Fold change /veh FAM26E (11764081_at) / RFU ISYNA1 (11749810_s_at) / Fold change /veh ISYNA1 (11749810_s_at) / RFU ACY1 (11761880_at) / Fold change /veh ACY1 (11761880_at) / RFU 11764098_at / Fold change /veh 11764098_at / RFU SAMD14 (11745864_x_at) / Fold change /veh SAMD14 (11745864_x_at) / RFU NPB (11741838_a_at) / Fold change /veh NPB (11741838_a_at) / RFU TMPRSS6 (11731388_a_at) / Fold change /veh TMPRSS6 (11731388_a_at) / RFU KRTAP10-2 (11738614_at) / Fold change /veh KRTAP10-2 (11738614_at) / RFU ARHGAP8 /// PRR5-ARHGAP8 (11727945_x_at) / Fold change /veh ARHGAP8 /// PRR5-ARHGAP8 (11727945_x_at) / RFU KRTAP5-7 /// NADSYN1 (11734609_at) / Fold change /veh KRTAP5-7 /// NADSYN1 (11734609_at) / RFU RASL12 (11751679_a_at) / Fold change /veh RASL12 (11751679_a_at) / RFU CDKN2B (11736163_a_at) / Fold change /veh CDKN2B (11736163_a_at) / RFU PRF1 (11729649_at) / Fold change /veh PRF1 (11729649_at) / RFU, ZNF638 /// ZNF638-IT1 / Fold change vs veh, ZNF638 /// ZNF638-IT1 / RFU, PANK3 / Fold change vs veh, PANK3 / RFU, SH3YL1 / Fold change vs veh, SH3YL1 / RFU, ZEB2 / Fold change vs veh, ZEB2 / RFU, NRIP1 / Fold change vs veh, NRIP1 / RFU, PTTG1IP / Fold change vs veh, PTTG1IP / RFU, CAPN2 / Fold change vs veh, CAPN2 / RFU, MED14 / Fold change vs veh, MED14 / RFU, SNORA58 / Fold change vs veh, SNORA58 / RFU, C1orf63 / Fold change vs veh, C1orf63 / RFU, LRRFIP1 / Fold change vs veh, LRRFIP1 / RFU, NDUFAF7 / Fold change vs veh, NDUFAF7 / RFU, SLC12A2 / Fold change vs veh, SLC12A2 / RFU, IBTK / Fold change vs veh, IBTK / RFU, ESF1 / Fold change vs veh, ESF1 / Fold change vs veh, TMEM50B / RFU, TAOK1 / Fold change vs veh, TAOK1 / RFU, ACBD3 / Fold change vs veh, ACBD3 / RFU, TMA16 / Fold change vs veh, TMA16 / RFU, RWDD3 / Fold change vs veh, RWDD3 / RFU, BCAT1 / Fold change vs veh, BCAT1 / RFU, EDEM3 / Fold change vs veh, EDEM3 / RFU, TMEM33 / Fold change vs veh, TMEM33 / RFU, WDR75 / Fold change vs veh, WDR75 / RFU, AHCTF1 / Fold change vs veh, AHCTF1 / RFU, TFRC / Fold change vs veh, TFRC / RFU, ZDHHC17 / Fold change vs veh, ZDHHC17 / RFU, NOM1 / Fold change vs veh, NOM1 / RFU, ARL8B / Fold change vs veh, ARL8B / RFU, ZBTB11 / Fold change vs veh, ZBTB11 / RFU, TAMM41 / Fold change vs veh, TAMM41 / RFU, KIAA1704 /// LOC100996395 / Fold change vs veh, KIAA1704 /// LOC100996395 / RFU, ING1 / Fold change vs veh, ING1 / RFU, TRMT61B / Fold change vs veh, TRMT61B / RFU, FUBP3 / Fold change vs veh, FUBP3 / RFU, TP53 / Fold change vs veh, TP53 / RFU, TNKS2 / Fold change vs veh, TNKS2 / RFU, ZFP14 / Fold change vs veh, ZFP14 / RFU, ACTR2 / Fold change vs veh, ACTR2 / RFU, PPP3R1 / Fold change vs veh, PPP3R1 / RFU, PIK3R1 / Fold change vs veh, PIK3R1 / RFU, HNRNPA1 / Fold change vs veh, HNRNPA1 / RFU, RNF170 / Fold change vs veh, RNF170 / RFU, ZNF28 / Fold change vs veh, ZNF28 / RFU, RNGTT / Fold change vs veh, RNGTT / RFU, OGT / Fold change vs veh, OGT / RFU, BRD1 / Fold change vs veh, BRD1 / RFU, MARS / Fold change vs veh, MARS / RFU, ZNF655 / Fold change vs veh, ZNF655 / RFU, FAHD1 / Fold change vs veh, FAHD1 / RFU, BDP1 / Fold change vs veh, BDP1 / RFU, LRRCC1 / Fold change vs veh, LRRCC1 / RFU, ARID1A / Fold change vs veh, ARID1A / RFU, ZNF146 / Fold change vs veh, ZNF146 / RFU, ZNF330 / Fold change vs veh, ZNF330 / RFU, GPN3 / Fold change vs veh, GPN3 / RFU, C9orf123 / Fold change vs veh, C9orf123 / RFU, N4BP2L2 / Fold change vs veh, N4BP2L2 / RFU, ARFIP1 / Fold change vs veh, ARFIP1 / RFU, FAM179B / Fold change vs veh, FAM179B / RFU, BCL10 / Fold change vs veh, BCL10 / RFU, UHRF1BP1L / Fold change vs veh, UHRF1BP1L / RFU, BET1 / Fold change vs veh, BET1 / RFU, CNOT2 / Fold change vs veh, CNOT2 / RFU, ZNF268 / Fold change vs veh, ZNF268 / Fold change vs veh, ZNF507 / RFU, DGCR2 / Fold change vs veh, DGCR2 / RFU, WDSUB1 / Fold change vs veh, WDSUB1 / Fold change vs veh, HSP90B1 /// MIR3652 / RFU, ADSS / Fold change vs veh, ADSS / RFU, GK / Fold change vs veh, GK / RFU, ZNF148 / Fold change vs veh, ZNF148 / RFU, TAF9 / Fold change vs veh, TAF9 / RFU, SLC1A5 / Fold change vs veh, SLC1A5 / RFU, SLMO2 / Fold change vs veh, SLMO2 / RFU, ABCC4 / Fold change vs veh, ABCC4 / RFU, LOC101060439 /// RAP1B / Fold change vs veh, LOC101060439 /// RAP1B / RFU, RFX7 / Fold change vs veh, RFX7 / RFU, GTPBP10 / Fold change vs veh, GTPBP10 / RFU, CNEP1R1 / Fold change vs veh, CNEP1R1 / RFU, BIVM-ERCC5 /// ERCC5 / Fold change vs veh, BIVM-ERCC5 /// ERCC5 / RFU, ILF3 / Fold change vs veh, ILF3 / RFU 11762660_at / Fold change /veh 11762660_at / RFU VCAN (11757783_s_at) / Fold change /veh VCAN (11757783_s_at) / RFU DDX43 (11728927_at) / Fold change /veh DDX43 (11728927_at) / RFU KRT8 (11758188_x_at) / Fold change /veh KRT8 (11758188_x_at) / RFU NKD1 (11759106_at) / Fold change /veh NKD1 (11759106_at) / RFU SRD5A1 (11742802_a_at) / Fold change /veh SRD5A1 (11742802_a_at) / RFU TPSAB1 /// TPSB2 (11721975_s_at) / Fold change /veh TPSAB1 /// TPSB2 (11721975_s_at) / RFU GSTM3 (11746129_a_at) / Fold change /veh GSTM3 (11746129_a_at) / RFU IL23R (11737362_x_at) / Fold change /veh IL23R (11737362_x_at) / RFU TMEM51 (11727254_a_at) / Fold change /veh TMEM51 (11727254_a_at) / RFU PIWIL2 (11732686_x_at) / Fold change /veh PIWIL2 (11732686_x_at) / RFU ORM1 (11744905_x_at) / Fold change /veh ORM1 (11744905_x_at) / RFU CCDC152 (11743942_at) / Fold change /veh CCDC152 (11743942_at) / RFU ECM1 (11717891_a_at) / Fold change /veh ECM1 (11717891_a_at) / RFU IL23R (11748794_a_at) / Fold change /veh IL23R (11748794_a_at) / RFU TNFAIP8L3 (11732012_x_at) / Fold change /veh TNFAIP8L3 (11732012_x_at) / RFU MBOAT4 (11741988_at) / Fold change /veh MBOAT4 (11741988_at) / RFU 11764193_at / Fold change /veh 11764193_at / RFU TMEM53 (11763286_at) / Fold change /veh TMEM53 (11763286_at) / RFU MAGEB2 (11727129_at) / Fold change /veh MAGEB2 (11727129_at) / RFU TMEM200A (11744735_a_at) / Fold change /veh TMEM200A (11744735_a_at) / RFU CCDC152 (11751479_a_at) / Fold change /veh CCDC152 (11751479_a_at) / RFU FAM211A (11726209_a_at) / Fold change /veh FAM211A (11726209_a_at) / RFU RGS16 (11746705_a_at) / Fold change /veh RGS16 (11746705_a_at) / RFU VCAN (11755009_s_at) / Fold change /veh VCAN (11755009_s_at) / RFU RHOB (11743442_s_at) / Fold change /veh RHOB (11743442_s_at) / RFU RGS16 (11720943_a_at) / Fold change /veh RGS16 (11720943_a_at) / RFU RGS16 (11720944_at) / Fold change /veh RGS16 (11720944_at) / RFU, VPS4B / Fold change vs veh, VPS4B / RFU, CREB1 / Fold change vs veh, CREB1 / RFU, DNAJC13 / Fold change vs veh, DNAJC13 / RFU, GNAQ / Fold change vs veh, GNAQ / RFU, CDK5R1 / Fold change vs veh, CDK5R1 / RFU, ZRANB3 / Fold change vs veh, ZRANB3 / RFU, CUL4A / Fold change vs veh, CUL4A / RFU, CCNY / Fold change vs veh, CCNY / RFU, UFL1 / Fold change vs veh, UFL1 / RFU, COG3 / Fold change vs veh, COG3 / RFU, DIAPH2 / Fold change vs veh, DIAPH2 / RFU, SKA2 / Fold change vs veh, SKA2 / RFU, AFF3 / Fold change vs veh, AFF3 / RFU, LMF1 / Fold change vs veh, LMF1 / RFU, IPO11 / Fold change vs veh, IPO11 / RFU, DFFB / Fold change vs veh, DFFB / RFU, FOXP1 / Fold change vs veh, FOXP1 / RFU, CARD8 / Fold change vs veh, CARD8 / RFU, STRN3 / Fold change vs veh, STRN3 / RFU, ADK / Fold change vs veh, ADK / RFU, RASSF2 / Fold change vs veh, RASSF2 / RFU, WIPF1 / Fold change vs veh, WIPF1 / RFU, LARP1B / Fold change vs veh, LARP1B / RFU, RASA1 / Fold change vs veh, RASA1 / RFU, RB1 / Fold change vs veh, RB1 / RFU, PPFIA1 / Fold change vs veh, PPFIA1 / RFU, MAT2A / Fold change vs veh, MAT2A / RFU, CCT5 / Fold change vs veh, CCT5 / RFU, WDR92 / Fold change vs veh, WDR92 / RFU, CUX1 / Fold change vs veh, CUX1 / RFU, TTC7A / Fold change vs veh, TTC7A / RFU, TMEM135 / Fold change vs veh, TMEM135 / RFU, DEPTOR / Fold change vs veh, DEPTOR / RFU, CPM / Fold change vs veh, CPM / RFU, DNAJB6 / Fold change vs veh, DNAJB6 / RFU, CACNA2D3 / Fold change vs veh, CACNA2D3 / RFU, DTX4 / Fold change vs veh, DTX4 / RFU, TFCP2 / Fold change vs veh, TFCP2 / RFU, GMCL1 /// GMCL1P1 / Fold change vs veh, GMCL1 /// GMCL1P1 / RFU, AEBP2 / Fold change vs veh, AEBP2 / RFU, SNHG1 /// SNORD22 /// SNORD25 /// SNORD26 /// SNORD27 /// SNORD28 /// SNORD29 /// SNORD31 / Fold change vs veh, SNHG1 /// SNORD22 /// SNORD25 /// SNORD26 /// SNORD27 /// SNORD28 /// SNORD29 /// SNORD31 / Fold change (Aza/veh), C12orf56 (ProbeSet 11735607_a_at) / Fold change (ACY-1035/veh), C12orf56 (ProbeSet 11735607_a_at) / Fold change (Aza/veh), FGFR1OP (ProbeSet 11751329_s_at) / Fold change (ACY-1035/veh), FGFR1OP (ProbeSet 11751329_s_at) / Fold change (Aza/veh), VPS36 (ProbeSet 11739960_a_at) / Fold change (ACY-1035/veh), VPS36 (ProbeSet 11739960_a_at) / RFU SYPL1 (11715823_x_at) / Fold change /veh SYPL1 (11715823_x_at) / RFU IGFBP7 (11715501_s_at) / Fold change /veh IGFBP7 (11715501_s_at) / RFU REEP3 (11722064_at) / Fold change /veh REEP3 (11722064_at) / RFU IGLL1 (11728026_x_at) / Fold change /veh IGLL1 (11728026_x_at): dose or concentration left out as unconfirmed. Conditions: ProbeSet 11732370_a_at; LIST D.

Take `Nc1ncn([C@@H]2O[C@H](CO)[C@@H](O)[C@H]2O)c(=O)n1` [azacitidine]: the “RFU, CUX1” value worked out at 199.77 RFU.
